Patent US20260191815A1, “THIOACRYLAMIDE DERIVATIVES FOR USE IN THE PREVENTION OR TREATMENT OF LIVER FIBROSIS” (CMR CUREDIAB METABOLIC RESEARCH GMBH, priority 2022, published 2026)

How the values were obtained:
[1] = system: 3D primary human hepatocyte (PHH) spheroid NASH model; test: Intracellular lipid accumulation (AdipoRed) in 3D PHH:NPC NASH spheroids; format: cell-based; details: NASH medium; for lipid contents of spheroids compared to NASH (100%): 1 week of exposure
Experimental: (§1) Experiments were conducted using HepaPredict's (HepaPredict AB, Sweden) 3D primary human hepatocyte (PHH) spheroid NASH model (e.g. as published in Bell et al. Sci Rep. 2016 May 4; 6:25187. doi: 10.1038/srep25187).
(§2) Cryopreserved primary human hepatocytes were obtained from BioIVT (USA) and nonparenchymal cells (NPC) from LifeNetHealth (USA). After thawing, PHH-NPC cocultures were seeded in a multi-well 96-well Elplasia plate (Corning) in William's E medium containing 11 mM glucose, 10 μg/mL (control) or 10 mg/mL insulin (NASH), 100 nM dexamethasone, 5.5 mg/L transferrin, 6.7 μg/L selenite, 2 mM L-glutamine, 1 U/mL penicillin, 0.1 mg/mL streptomycin, and 10% fetal bovine serum (FBS). PHH-NPC cocultures were seeded in ratio of 6:1 PHH:NPC with a total of 40,000 PHH per well. When spheroids were formed, FBS was phased out and spheroids were maintained in either the same media to provide the negative control (“Ctrl”), or with addition of albumin-conjugated free fatty acid (FFA), comprised of 240 μM palmitic acid and 240 μM oleic acid (NASH medium) to provide the positive control (“NASH”). Compound exposure was conducted in NASH medium with medium exchanges every 48-72 hours.
For cell viability and intracellular lipid accumulation assays, cells were seeded as previously reported (Bell et al., SciRep, 2016). In short, PHH and NPC were seeded as a single spheroid per well into 96-well ultra-low attachment (ULA) plates (Corning) at 1,500 viable cells per well with the PHH:NPC ratio 6:1.
After spheroid formation, cells were exposed to up to five different concentrations of the candidate molecules HK1 or HK3 (0.1 μM, 0.3 μM, 1 μM, 3 μM, and 10 μM) with or without FFA in the culture medium. All compound stocks and dilutions were prepared in DMSO, aliquoted and stored protected from light at −20° C. Fresh dosing solutions were prepared from these aliquots on each dosing day. All endpoints were evaluated after 14 days of exposure.
For statistical comparisons, normalized values for a given condition were compared to either the corresponding vehicle (DMSO) controls or the respective FFA (NASH) controls at the same time point using heteroscedastic unpaired two-tailed t-tests.
Intracellular lipid accumulation was quantified using the AdipoRed Adipogenesis Assay Kit (Lonza) following the manufacturer's instructions. […] Afterwards, spheroids were disrupted by vigorous pipetting and fluorescence was measured (Ex/Em: 485/572) using a SpectraMax iD5 multi-mode microplate reader (Molecular Devices).
To evaluate whether the two candidate compounds HK1 and HK3 impacted hepatic steatosis, we assessed their impact on intracellular triglyceride accumulation after 1 week of exposure. […]

[2] = system: pro-collagen 1a1 in 3D PHH:NPC spheroid supernatants; test: Pro-collagen 1a1 ELISA in supernatants of 3D PHH:NPC NASH spheroids; format: cell-based, human; details: NASH medium
Experimental: as §1, §2
After spheroid formation, cells were exposed to up to five different concentrations of the candidate molecules HK1 or HK3 (0.1 μM, 0.3 μM, 1 μM, 3 μM, and 10 μM) with or without FFA in the culture medium. All compound stocks and dilutions were prepared in DMSO, aliquoted and stored protected from light at −20° C. Fresh dosing solutions were prepared from these aliquots on each dosing day. All endpoints were evaluated after 14 days of exposure. […]
Supernatant from each well was collected and stored at […]. On the day of the measurement, samples were thawed and fibrosis was evaluated using the Human Pro-collagen 1 alpha 1 DuoSet ELISA (R&D Systems) where pro-collagen 1a1 levels were measured in culture supernatants. […]

| SMILES | lipid contents of spheroids compared to NASH (100%) ([1]; 1 μM) [%] | lipid contents of spheroids compared to NASH (100%) ([1]; 3 μM) [%] | lipid contents of spheroids compared to NASH (100%) ([1]; 10 μM) [%] | accumulation of intracellular lipids compared to the positive control ([1]; across 1 μM, 3 μM and 10 μM, 1 week) | pro-collagen 1a1 levels compared to NASH ([2]; 1 μM) [%] | pro-collagen 1a1 levels compared to NASH ([2]; 3 μM) [%] | pro-collagen 1a1 levels compared to NASH ([2]; 10 μM) [%] |
| --- | --- | --- | --- | --- | --- | --- | --- |
| Cc1cc(NC(=S)/C(C#N)=C(\O)C2CC2)ccc1F [HK1, 2-Cyano-3-cyclopropyl-N-(4-fluoro-3-methyl-phenyl)-3-hydroxy-thioacrylamide] | 79 | 81 | 62 |  |  |  |  |
| Cc1cc(NC(=S)/C(C#N)=C(\O)C2CC2)ccc1[N+](=O)[O-] [HK3, 2-Cyano-3-cyclopropyl-3-hydroxy-N-(3-methyl-4-nitro-phenyl)-thioacrylamide] |  |  |  | 46-49% | 82 | 73 | 64 |
